Measured values from US20200291444A1, “Macrocyclisation Tags” (Oxford University Innovation LTD, priority 2017, published 2020).

Assays:
PCY1 [1] = test: PCY1 macrocyclisation of hybrid precursor peptides containing non-amino acids (Maldi); type: biochemical, Saponaria vaccaria; conditions: 16 h incubation with PCY1, Maldi spectrum
Description: All kinetic measurements (activity tests, progress curves and initial-rate experiments) were performed as discontinuous assays analyzing samples via LC/MS or MALDI (10-mer activity test). Reactions were performed in 20 mM Tris pH 8.5, 100 mM NaCl, 5 mM DTT (for progress curves 0.2 mg mL-1 BSA was included).17 Reactions were performed at 30° C. and at various time points 50 μL samples were quenched with 20 μL of 6% (v/v) TFA. Samples (50 μL) were loaded onto a ZORBAX SBC18, 5 μm, 9.4 mm×50 mm (Agilent) column connected to an Agilent LC-MS instrument (G6130B Single Quad, Agilent Technologies). Reactants were separated from products using a gradient from A (H2O with 0.1% formic acid) to 80% B (acetonitrile), at a rate of 1.5 mL/min for 8.75 min. For data analysis, ion count peaks and UV absorbance peaks were integrated using Agilent ChemStation software. For data analysis involving quantitative mass spec integration, calibration curves with macrocyclic peptide product were performed in triplicate in order to linearly correlate ion counts to cyclic product concentration. Data fitting and plotting was performed with Prism 6. […]

[2] = test system: T1, 13mer truncated substrate
T1 sequence: IWGIGCNPWTAEH

[3] = test system: T2, 14mer truncated substrate
T2 sequence: IWGIGCNPWTAEHV

25mer substrate = test system: T3, 25mer substrate
T3 sequence: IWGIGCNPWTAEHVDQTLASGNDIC

[4] = test system: CC[C@H](C)[C@H](N)C(=O)N[C@@H](Cc1c[nH]c2ccccc12)C(=O)NCC(=O)N[C@H](C(=O)NCC(=O)N[C@@H](CS)C(=O)N[C@@H](CC(N)=O)C(=O)N1CCC[C@H]1C(=O)N[C@@H](Cc1c[nH]c2ccccc12)C(=O)N[C@H](C(=O)N[C@@H](C)C(=O)N[C@@H](CCC(=O)O)C(=O)N[C@@H](Cc1c[nH]cn1)C(=O)N[C@H](C(=O)N[C@@H](CC(=O)O)C(=O)N[C@@H](CCC(N)=O)C(=O)N[C@H](C(=O)N[C@@H](CC(C)C)C(=O)N[C@@H](C)C(=O)N[C@@H](CO)C(=O)NCC(=O)N[C@@H](CC(N)=O)C(=O)N[C@@H](CC(=O)O)C(=O)N[C@H](C(=O)N[C@@H](CS)C(=O)O)[C@@H](C)CC)[C@@H](C)O)C(C)C)[C@@H](C)O)[C@@H](C)CC; test: GmPOPB kinetic assays (LC-MS); type: biochemical, Galerina marginata; conditions: other: room temperature; pH 8.0
Description: Comparison between distinct GmPOPB substrates was performed in 50 mM Tris pH 8.0, 50 mM NaCl, 10 mM DTT with varying concentrations of substrates at room temperature. All reactions were performed in duplicates. Reactions were started by adding GmPOPB (50 nM for GmAMA1_C6S, 1 μM for the 13mer and 14mer, and 20 nM for other substrates) to the assay mixture containing buffer and peptide. Reactions were quenched at several time points by adding 50 μL reaction mixture to 20 μL 6% TFA. Reactants were separated from products for quantification by injecting 50 μL of each quenched time point mix onto a ZORBAX SB-C18, 5 μm, 9.4×50 mm (Agilent) column connected to an Agilent LC-MS (G6130B Single Quad, Agilent Technologies). Reactants were separated from products using a gradient from H2O containing 0.1% TFA or 0.1% formic acid and 5% acetonitrile to 50% acetonitrile, at 1.5 ml/min for 8 min. Peaks with ultra violet (UV) absorbance at 220 and 280 nm were integrated, the area of peaks corresponding to reactant and products was used to calculate the percentage of product formed after a correction for differences in the extinction coefficient of each peptide was applied (ε280-25mer=11,000M-1 cm-1, ε220-25mer=46,000M-1 cm-1, ε280-cyclic=5500M-1 cm-1, ε220-cyclic=34,000M-1 cm-1, and ε280-tail=5500M-1 cm-1). The sum of product+substrate was assumed equal to the total initial amount of substrate, product converted from % to concentration. This value was divided by concentration of enzyme present to yield v/Et (min-1). When enzyme mutants and peptides containing alanine in the core region were tested for activity, higher concentrations 5 μM enzyme and 100 μM substrate were incubated for 1 and 18 h at room temperature. For progress curves with the 35mer substrate, measurements were triplicate and quantification relied on ion counts from mass spectrometry. […] Authentic macrocyclic peptide was quantified by UV absorbance. Data showing products formed after 1 and 16 h with truncated peptides were performed twice. […] Kinetic data were fitted to a Michaelis-Menten equation using GraphPad Prism, and values reported are average and standard error of the mean.

PCY1 [5] = test: LC/MS time course of macrocyclisation by PCY1; type: biochemical, Saponaria vaccaria; conditions: 200 μM substrate, 3.6 μM PCY1
Description: (§1) All kinetic measurements (activity tests, progress curves and initial-rate experiments) were performed as discontinuous assays analyzing samples via LC/MS or MALDI (10-mer activity test). Reactions were performed in 20 mM Tris pH 8.5, 100 mM NaCl, 5 mM DTT (for progress curves 0.2 mg mL-1 BSA was included).17 Reactions were performed at 30° C. and at various time points 50 μL samples were quenched with 20 μL of 6% (v/v) TFA. Samples (50 μL) were loaded onto a ZORBAX SBC18, 5 μm, 9.4 mm×50 mm (Agilent) column connected to an Agilent LC-MS instrument (G6130B Single Quad, Agilent Technologies). Reactants were separated from products using a gradient from A (H2O with 0.1% formic acid) to 80% B (acetonitrile), at a rate of 1.5 mL/min for 8.75 min. For data analysis, ion count peaks and UV absorbance peaks were integrated using Agilent ChemStation software. For data analysis involving quantitative mass spec integration, calibration curves with macrocyclic peptide product were performed in triplicate in order to linearly correlate ion counts to cyclic product concentration. Data fitting and plotting was performed with Prism 6.
PCY1 extracted from S. vaccaria seeds has been previously described to have a turnover number of ˜1 h^−1 for PresegA1.^17 The enzyme produced heterologously in E. coli was evaluated by LC/MS-based time course experiments macrocyclizing 200 μM of PresegA1, PresegB1 or PresegF1 with 3.6 μM PCY1. […] We chose to investigate the slowest and fastest substrate by steady-state kinetics using an LC/MS assay and UV280 nm quantification. […] Under the ITC conditions, the measured kcat (0.14±0.01 s^−1) was a factor of three lower than the LC/MS derived values. […] Therefore, we resorted to an LC/MS assay followed by quantification using mass ion counts, relying on a calibration curve employing the macrocyclic peptide product as a standard (FIG. 2b).

PCY1 [6] = test: LC/MS steady-state kinetics of macrocyclisation by PCY1; type: biochemical, Saponaria vaccaria
Description: as §1
PCY1 extracted from S. vaccaria seeds has been previously described to have a turnover number of ˜1 h^−1 for PresegA1.^17 The enzyme produced heterologously in E. coli was evaluated by LC/MS-based time course experiments macrocyclizing 200 μM of PresegA1, PresegB1 or PresegF1 with 3.6 μM PCY1. These substrates were chosen as they produce 6, 5 and 9 residue macrocycles, respectively, show variability in the length of the C-terminal tail sequence, and have a different C-terminal core residue (proline in PresegF1, alanine in the other two) (FIG. 1b). PresegB1 was completely macrocyclized in ˜30 min, PresegA1 in ˜50 min and PresegF1 in >3 h (FIG. 2a). We chose to investigate the slowest and fastest substrate by steady-state kinetics using an LC/MS assay and UV280 nm quantification. […] Under the ITC conditions, the measured kcat (0.14±0.01 s^−1) was a factor of three lower than the LC/MS derived values. […] Therefore, we resorted to an LC/MS assay followed by quantification using mass ion counts, relying on a calibration curve employing the macrocyclic peptide product as a standard (FIG. 2b).

PCY1 [7] = test: Single injection kinetic ITC with PCY1; type: biochemical, Saponaria vaccaria; conditions: 30° C.
Description: (§2) All PCY1 samples were buffer-exchanged or solubilized into buffer F and further diluted in the same batch of buffer F, in order to minimize buffer mismatches. ITC binding experiments were performed using a cell solution containing PCY1:S562A and a titrant solution with each peptide used. All peptides were used at 200 μM except for presegetalin A1-NH2 (700 μM). […] The measurements were performed at a stir speed of 750 rpm at 25° C. using a reference power of 10 μcal/s, except for A1-NH2 (5 μcal/s). A buffer titration control in which peptide was titrated into buffer was performed for each experiment. Data processing, fitting to a non-linear one-site binding model, and data plotting was performed using MicroCal PEAQ ITC analysis software (Malvern). […] The measurement was performed in buffer at 30° C., at 750 rpm using a reference power of 5 μcal/s.

PCY1:S562A = test: ITC equilibrium binding to PCY1:S562A; design: species or system Saponaria vaccaria; conditions: ITC, 25° C.
Description: as §2, with “used.” for “used. All peptides were used at 200 μM except for presegetalin A1-NH2 (700 μM).”

[8] = biological target: T4, GmPOPB_S577A (Galerina marginata), H2E7Q8; test: ITC, peptide titrated into GmPOPB_S577A, 20 C
T4 chain: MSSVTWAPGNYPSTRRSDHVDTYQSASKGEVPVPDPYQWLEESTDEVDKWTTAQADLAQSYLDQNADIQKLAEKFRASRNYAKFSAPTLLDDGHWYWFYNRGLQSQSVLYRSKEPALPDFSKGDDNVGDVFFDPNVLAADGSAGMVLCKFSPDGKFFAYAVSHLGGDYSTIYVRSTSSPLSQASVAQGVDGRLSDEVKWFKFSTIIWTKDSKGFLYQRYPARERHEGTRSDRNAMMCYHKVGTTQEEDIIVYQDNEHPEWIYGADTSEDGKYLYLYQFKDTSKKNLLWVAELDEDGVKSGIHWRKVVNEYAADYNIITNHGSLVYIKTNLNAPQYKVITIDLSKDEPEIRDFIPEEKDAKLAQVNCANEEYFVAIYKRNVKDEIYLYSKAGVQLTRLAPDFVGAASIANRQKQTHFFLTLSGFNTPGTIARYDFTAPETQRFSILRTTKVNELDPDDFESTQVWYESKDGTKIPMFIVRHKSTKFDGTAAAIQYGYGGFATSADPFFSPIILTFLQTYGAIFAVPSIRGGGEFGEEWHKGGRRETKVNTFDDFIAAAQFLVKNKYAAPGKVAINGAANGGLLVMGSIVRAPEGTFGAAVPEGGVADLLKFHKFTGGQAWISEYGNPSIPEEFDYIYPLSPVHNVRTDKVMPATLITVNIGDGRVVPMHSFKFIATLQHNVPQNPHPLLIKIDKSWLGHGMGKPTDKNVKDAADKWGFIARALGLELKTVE

presegetalin B1 = biological target: T5, presegetalin B1
T5 chain: GVAWAFQAKDVENASAPV

VGAG-8Aoc-FPIQT-NH2 was tested. Which “conversion overnight (in words)” value (PCY1 [1]) did it give?
Its value is “almost entirely converted”.

“GmPOPB (Galerina marginata POPB), wild type” was tested. Which “Km, Michaelis-Menten kinetics of macrocyclisation” value (“Km, Michaelis-Menten kinetics” for short) [2] did it give?
The value was “the 13mer substrate has a Km (25 µM)”.

And the “Km, Michaelis-Menten kinetics” value [3]?
Its value is “the 14mer possesses higher Km (380 µM)”.

And the “Km, Michaelis-Menten kinetics” value (25mer substrate)?
The value was “the 25mer substrate (50 µM)”.

GmPOPB (Galerina marginata CBS 339.88) was tested. Which Km [4] did it give?
Its Km is 50 µM.

And the kcat [4]?
The kcat was 18 min⁻¹.

With “PresegB1: native linear PCY1 substrate presegetalin B1; produces a 5 residue macrocycle (GVAWAFQAKDVENASAPV)” as the molecule, how does the “time until completely macrocyclized” value (PCY1 [5]) read?
The value was ~30 min.

What about the “kcat (table head prints kout)” value (PCY1 [6]; LC/MS (UV280 nm), 30° C.) of the same molecule?
The value was 0.37 ± 0.02 s⁻¹.

And the Km (PCY1 [6]; LC/MS (UV280 nm), 30° C., read-out: Km (table head prints Kin))?
Its Km is 450 ± 170 nM.

And the “processing by PCY1 (in words)” value (PCY1 [6]; steady state kinetics, FIG. 7)?
Its value is “rapidly processed”.

And the “kcat (table head prints kout)” value (PCY1 [7])?
The value was 0.14 ± 0.01 s⁻¹.

What about the Km (PCY1 [7]; read-out: Km (table head prints Kin)) of the same molecule?
The Km was 250 ± 10 nM.

What about the Kd (PCY1:S562A) of the same molecule?
The Kd was ~200 nM.

With FSA-8Aoc-SKPIQT-NH2 as the molecule, how does the conversion rate overnight (PCY1 [1]) read?
The conversion rate overnight was “around 50%”.

MFDTNATRLPIWGIGCNPWTAEHVDQTLASGNDIC (modifications not checked) [35mer substrate (GmAMA1)] was tested. Which Kd [8] did it give?
Its Kd is 120 nM.

B1: PCY1 (Saponaria vaccaria), wild type (protein)
chain: MATSGFSKPLHYPPVRRDETVVDDYFGVKVADPYRWLEDPNSEETKEFVDNQEKLANSVLEECELIDKFKQKIIDFVNFPRCGVPFRRANKYFHFYNSGLQAQNVFQMQDDLDGKPEVLYDPNLREGGRSGLSLYSVSEDAKYFAFGIHSGLTEWVTIKILKTEDRSYLPDTLEWVKFSPAIWTHDNKGFFYCPYPPLKEGEDHMTRSAVNQEARYHFLGTDQSEDILLWRDLENPAHHLKCQITDDGKYFLLYILDGCDDANKVYCLDLTKLPNGLESFRGREDSAPFMKLIDSFDASYTAIANDGSVFTFQTNKDAPRKKLVRVDLNNPSVWTDLVPESKKDLLESAHAVNENQLILRYLSDVKHVLEIRDLESGALQHRLPIDIGSVDGITARRRDSVVFFKFTSILTPGIVYQCDLKNDPTQLKIFRESVVPDFDRSEFEVKQVFVPSKDGTKIPIFIAARKGISLDGSHPCEMHGYGGFGINMMPTFSASRIVFLKHLGGVFCLANIRGGGEYGEEWHKAGFRDKKQNVFDDFISAAEYLISSGYTKARRVAIEGGSNGGLLVAACINQRPDLFGCAEANCGVMDMLRFHKFTLGYLWTGDYGCSDKEEEFKWLIKYSPIHNVRRPWEQPGNEETQYPATMILTADHDDRVVPLHSFKLLATMQHVLCTSLEDSPQKNPIIARIQRKAAHYGRATMTQIAEVADRYGFMAKALEAPWID
What does the source list for B1?
Km (column head printed as 'Kin (µM)'), single injection kinetic ITC (presegetalin B1): 0.25 µM; Km (column head printed as 'Kin (µM)'), steady-state kinetics, LC/MS (UV280 nM) (presegetalin B1): 0.45 µM
